From US4265912A, “Glaucine lactate salts” (priority 1979, dated 1981)
Where a name gives a salt, the structure may show the parent alone. Read-outs that look alike come from different tables or passages of the source.

What was measured:
mice = type: in vivo; settings: for stimulation and Straub tail: mouse, in vivo, 100 mg/kg; for mice jumping after naloxone: naloxone 100 mg/kg intraperitoneal after increasing doses on two consecutive days
Protocol: Physical dependency liability was evaluated in mice by the procedure of Saelens, et al., Arch. Int. Pharmacodynam, 190:213-218, 1971. In this procedure, mice are administered increasing doses of a test compound at intervals on two consecutive days. The last dosage on the second day is followed by intraperitoneal injection of the morphine antagonist, naloxone, at a dosage of 100 mg/kg, and the mice are observed for characteristic jumping behaviour indicative of opiate withdrawals or morphine antagonism.

[1] = type: physicochemical; settings: syrup; for percent of original concentration retained after one month: 0.6 percent d,l-glaucine lactate, 0.2 percent codeine phosphate or d,l-glaucine hydrobromide, 43800 min; for Percentage Remaining after 3 months at 40° C. / Percentage Remaining after 3 months at 55° C. / Percentage Remaining after 3 months at Ambient: 131400 min
Protocol: Stability of d,l-glaucine lactate was examined in the syrup vehicle of Example 4.
Syrups containing codeine phosphate, 0.2 percent, contained 97.5, 104.5 or 100 percent, respectively, after one month at ambient temperature, 40° C. or 55° C. […] After three months, the percentage amount of antitussive agent remaining was as shown below

[2] = solubility in cough syrup vehicle; type: physicochemical; settings: cough syrup vehicle of Example 4
Protocol: A cough syrup vehicle formulation was prepared containing the following pharmaceutically-acceptable excipients: […]

[3] = stability of syrup with continuous exposure to light in amber and flint glass bottles; type: physicochemical; settings: for assay after one month with continuous exposure to light, amber glass bottles / assay after one month with continuous exposure to light, flint glass bottles: ambient temperature, about 2000 Foot-candles, 24 hours/day, 43800 min; for assay after one month with continuous exposure to light, flint glass bottles: transparent (flint) glass
Protocol: In a procedure similar to that of Example 5, syrup formulations were prepared, placed in amber glass bottles and transparent (flint) glass bottles, and held under conditions of ambient temperature with continuous exposure to light. (About 2000 Foot-candles of combined fluorescent and incandescent light, for 24 hours/day.)

[4] = system: mouse (phenyl-p-quinone writhing); assay: analgesic activity, phenyl-p-quinone mouse writhing test; type: in vivo; settings: oral, 30 minutes prior to phenyl-p-quinone challenge
Protocol: Test compounds were evaluated for analgesic activity in the phenyl-p-quinone mouse writhing test of Hendershot & Forsaith, J. Pharmacol. Exptl. Therap. 125(3) 237 (1959). The test compounds were administered orally 30 minutes prior to the phenyl-p-quinone challenge.

[5] = system: guinea pigs (coughing, citric acid aerosol); assay: antitussive activity, citric acid aerosol test, intraperitoneal injection; type: in vivo; settings: Cavia porcellus, ip
Protocol: Separate groups of guinea pigs were orally administered various doses of a test compound, or distilled water for a control group. One hour after oral dosing, the guinea pigs were exposed to a 5 percent aerosol of citric acid for a 10 minute test period. The number of cough responses produced during the last five minutes of exposure to the citric acid aerosol was recorded and the dosage effect to suppress coughing in 50 percent of the guinea pigs (ED50) was calculated. An antitussive effect was recorded for a guinea pig when its total number of coughs during the 5 minute test period were at least two standard deviation units below the mean number of coughs per guinea pig in the control group. […]; In an operation similar to that of Example 2, test compounds were administered to guinea pigs by intraperitoneal injection, with one group of guinea pigs receiving distilled water as a control. ED50 's were calculated for antitussive activity in the citric acid aerosol test as described in Example 2. […];

[6] = system: guinea pigs (coughing, citric acid aerosol); assay: antitussive activity, citric acid aerosol test, oral; type: in vivo; settings: Cavia porcellus, 1 h, 5 percent citric acid aerosol one hour after dosing
Protocol: Separate groups of guinea pigs were orally administered various doses of a test compound, or distilled water for a control group. One hour after oral dosing, the guinea pigs were exposed to a 5 percent aerosol of citric acid for a 10 minute test period. The number of cough responses produced during the last five minutes of exposure to the citric acid aerosol was recorded and the dosage effect to suppress coughing in 50 percent of the guinea pigs (ED50) was calculated. An antitussive effect was recorded for a guinea pig when its total number of coughs during the 5 minute test period were at least two standard deviation units below the mean number of coughs per guinea pig in the control group. […];

[7] = stability of crystalline d,l-glaucine lactate on storage; type: physicochemical; settings: crystalline solid, 2 months storage at 40° C., read-out: percent of original assay retained, crystalline solid

SMILES | stimulation and Straub tail (mice) | mice jumping after naloxone (mice) | ED50 [4] [mg/kg] | percent of original concentration retained after one month ([1]; 40° C.) [%] | percent of original concentration retained after one month ([1]; 55° C.) [%] | percent of original concentration retained after one month ([1]; ambient temperature) [%] | Percentage Remaining after 3 months at 40° C. ([1]; 40° C.) [%] | Percentage Remaining after 3 months at 55° C. ([1]; 55° C.) [%] | Percentage Remaining after 3 months at Ambient [1] [%] | ED50 [5] [mg/kg] | assay after one month with continuous exposure to light, amber glass bottles [3] [%] | assay after one month with continuous exposure to light, flint glass bottles [3] [%] | ED50 [6] [mg/kg] | also measured
COc1cc2c(cc1OC)-c1c(OC)c(OC)cc3c1C(C2)N(C)CC3 (racemic) [d,l-Glaucine lactate (2:3)] | no Straub tail | no jumping behaviour in any of the ten mice |  |  |  |  |  |  |  |  |  |  |  | 
COc1cc2c(cc1OC)-c1c(OC)c(OC)cc3c1C(C2)N(C)CC3 (racemic) [d,l-glaucine hydrobromide] |  |  |  |  |  |  |  |  |  |  |  |  |  | percent of original concentration retained after one month ([1]; 40° C., hydrobromide): 96%; percent of original concentration retained after one month ([1]; 55° C., hydrobromide): 89.5%; percent of original concentration retained after one month ([1]; ambient temperature, hydrobromide): 99%; Percentage Remaining after 3 months at 40° C. ([1]; 40° C., listed as d,l-Glaucine . HBr, hydrobromide): 93.3%; Percentage Remaining after 3 months at 55° C. ([1]; 55° C., listed as d,l-Glaucine . HBr, hydrobromide): 91.4%; Percentage Remaining after 3 months at Ambient ([1]; listed as d,l-Glaucine . HBr, hydrobromide): 100.8%; solubility in cough syrup vehicle ([2]; hydrobromide): 0.3%; solubility in cough syrup vehicle per 5 milliliter dosage unit ([2]; hydrobromide): about 15 milligrams per 5 milliliter dosage unit; assay after one month with continuous exposure to light, amber glass bottles ([3]; hydrobromide): 84%; assay after one month with continuous exposure to light, flint glass bottles ([3]; hydrobromide): 74.5%
COc1cc2c(cc1OC)-c1c(OC)c(OC)cc3c1C(C2)N(C)CC3 (racemic) [d,l-glaucine lactate] |  |  | 25.5 | 100.6 | 96.7 | 98.8 | 97.0 | 97.4 | 104.1 | 7.9 | 94 | 80.6 | 63.4 | solubility in cough syrup vehicle [2]: 2%; solubility in cough syrup vehicle per 5 milliliter dosage unit [2]: about 100 milligrams per 5 milliliter dosage unit; remaining at 1460 h [7]: > 99%
COc1ccc2c3c1O[C@H]1[C@@H](O)C=C[C@H]4[C@@H](C2)N(C)CC[C@@]341 [codeine phosphate] | Straub tail and stimulation | 2 of 6 | 21.2 | 104.5 | 100 | 97.5 | 101.1 | 88.4 | 101.3 | 10.9 | 100 | 100 | 86.6 | stability in both types of container ([3]; amber and flint glass, light, one month): appeared stable in both types of container; total number of jumps after naloxone (mice; naloxone 100 mg/kg intraperitoneal): 23 jumps total
COc1cc2c(cc1OC)-c1c(OC)c(OC)cc3c1[C@H](C2)N(C)CC3 [d-glaucine hydrobromide] |  |  | 34 |  |  |  |  |  |  | 10 |  |  | 89 | 
